The values that follow come from patent publication US9567342B2, “Certain protein kinase inhibitors” (SHANGHAI FOCHON PHARMACEUTICAL CO., LTD., priority 2012, dated 2017).

pIC50: −log10 of the molar value.

The term pIC50 denotes the negative decadic logarithm of the IC50, by convention in mol/L.

One experiment concerns SU-DHL-1 cells. As to the kind of experiment: Inhibition activity of cell proliferation (CCK-8 assay). Conditions: Homo sapiens, 72 h exposure. Type of experiment: cell-based. As to the method: SU-DHL-1 cells were seeded in 96-well tissue culture plates. On the next day, cells were exposed to various concentrations of compounds and further cultured for 72 h. Cell proliferation was then determined using Cell Counting Kit-8 [(CCK-8), Dojindo]assay. Briefly, add 10 μL of the CCK-8 solution to each well of the plate. Incubate the plate for 1-4 hours in the incubator. Measure the absorbance at 450 nm using a multi-well spectrophotometer (SpectraMAX 190, Molecular Devices). The inhibition rate (%) was calculated using the following equation: [1−(A450 Compound/A450 Control)]×100%. IC50 values were calculated according to inhibition curve by four-parameter fit.
A general note: Tetrazolium dyes change colour on reduction, which living cells bring about.

For another experiment, the system named is NCI-H2228 cells. As to the kind of experiment: In vivo antitumor activity, NCI-H2228 cells implanted sc in nude mice. Conditions: QD, oral, NCI-H2228 xenograft. As to the method:
Male nude mice (6-week old) were housed in a specific pathogen-free room with a 12 h light/dark schedule at 20-25° C. and were fed an autoclaved chow diet and water ad libitum.
NCI-H2228 cells at a density of […] in 200 μL were first implanted sc into the right flank of each nude mice and then allowed to grow to above 230 mm^3, the mice were randomly assigned into control and treatment groups (n=6 per group for compound treated group, n=12 per group for vehicle group). Vehicle control group were given vehicle alone, and treatment groups were received Compound 4, LDK378 or Crizotinib as indicated doses via oral administration once daily for 21 days. The mice tumor volumes in each group were measured twice per week.

`Cc1cc(Nc2nc(Nc3ccccc3S(=O)(=O)C(C)C)c3c(C)n[nH]c3n2)c2c(c1C1CCN(C)CC1)C[C@@H](C)O2` [Example 4] had a pIC50 in the experiment on SU-DHL-1 cells of 7.96. Further, the “Mean relative tumor volume (RTV) ± S.E.” value in the experiment with NCI-H2228 cells (D0, 10 mg/kg) is reported as 100.00; in the experiment on NCI-H2228 cells (D4, 10 mg/kg), 52.92; in the experiment on NCI-H2228 cells (D7, 10 mg/kg), 36.55; in the experiment with NCI-H2228 cells (D11, 10 mg/kg), 29.20; in the experiment on NCI-H2228 cells (D14, 10 mg/kg), 18.82; in the experiment with NCI-H2228 cells (D18, 10 mg/kg) it was 9.48. Also, in the experiment with NCI-H2228 cells (D21, 10 mg/kg), the “Mean relative tumor volume (RTV) ± S.E.” value is on record as 5.28.
As for `C[C@@H](Oc1cc(-c2cnn(C3CCNCC3)c2)cnc1N)c1c(Cl)ccc(F)c1Cl` [Crizotinib], in the experiment on SU-DHL-1 cells, the pIC50 was 6.81 to 7.12. Further, the “Mean relative tumor volume (RTV) ± S.E.” value with NCI-H2228 cells (D0, 50 mg/kg) is listed as 100.00; with NCI-H2228 cells (D4, 50 mg/kg) it was 67.71±; in the experiment on NCI-H2228 cells (D7, 50 mg/kg), 54.10; in the experiment with NCI-H2228 cells (D11, 50 mg/kg), 44.71; with NCI-H2228 cells (D14, 50 mg/kg), 42.69; in the experiment with NCI-H2228 cells (D18, 50 mg/kg), 41.44. Moreover, the “Mean relative tumor volume (RTV) ± S.E.” value with NCI-H2228 cells (D21, 50 mg/kg) is on record as 43.69.
`Cc1cc(Nc2ncc(Cl)c(Nc3ccccc3S(=O)(=O)C(C)C)n2)c(OC(C)C)cc1C1CCNCC1` [LDK378] had a negative-log IC50 (pIC50) in the experiment with SU-DHL-1 cells of 6.47 to 7.02. Also, the “Mean relative tumor volume (RTV) ± S.E.” value worked out at 100.00 in the experiment on NCI-H2228 cells (D0, 20 mg/kg); 71.66 in the experiment on NCI-H2228 cells (D4, 20 mg/kg); 56.79 in the experiment on NCI-H2228 cells (D7, 20 mg/kg); 49.09 with NCI-H2228 cells (D11, 20 mg/kg); 48.58 in the experiment with NCI-H2228 cells (D14, 20 mg/kg); 35.67 in the experiment with NCI-H2228 cells (D18, 20 mg/kg). The “Mean relative tumor volume (RTV) ± S.E.” value in the experiment on NCI-H2228 cells (D21, 20 mg/kg) is given as 31.44.
In the experiment with SU-DHL-1 cells, `COCCN1CCC(c2c(C)cc(Nc3ncc(Cl)c(Nc4ccccc4S(=O)(=O)C(C)C)n3)c3c2C[C@@H](C)O3)CC1` [Example 32, (R)-5-chloro-N-4-(2-(isopropylsulfonyl)phenyl)-N-2-(4-(1-(2-methoxyethyl)piperidin-4-yl)-2,5-dimethyl-2,3-dihydrobenzofuran-7-yl)pyrimidine-2,4-diamine] gave a pIC50 of 7.71.
Turning to `Cc1cc(Nc2ncc(Cl)c(Nc3ccccc3S(=O)(=O)C(C)C)n2)c2c(c1C(=O)N1CCN(C)CC1)C[C@H](C)O2` [Example 47, (S)-(7-((5-chloro-4-((2-(isopropylsulfonyl)phenyl)amino)pyrimidin-2-yl)amino)-2,5-dimethyl-2,3-dihydrobenzofuran-4-yl)(4-methylpiperazin-1-yl)methanone], the pIC50 in the experiment with SU-DHL-1 cells was 6.93.
`Cc1cc(Nc2nc(Nc3ccccc3S(=O)(=O)C(C)C)c3c(C)n[nH]c3n2)c2c(c1C1CCNCC1)CC(CO)O2` (stereo not drawn) [Example 7, (7-(4-(2-(isopropylsulfonyl)phenylamino)-3-methyl-1H-pyrazolo[3,4-d]pyrimidin-6-ylamino)-5-methyl-4-(piperidin-4-yl)-2,3-dihydrobenzofuran-2-yl)methanol] had a negative logarithm of the IC50 (pIC50) in the experiment with SU-DHL-1 cells of 6.53.
On the same count and under the same terms, to `Cc1cc(Nc2ncc(Cl)c(Nc3ccccc3S(=O)(=O)C(C)C)n2)c2c(c1C1CCNCC1)CCO2` [Example 13] belongs more than 8.39.
Same read-out and setting: to `Cc1cc(Nc2ncc(Cl)c(Nc3ccccc3S(=O)(=O)C(C)C)n2)c2c(c1C1CCN(CCS(C)(=O)=O)CC1)C[C@@H](C)O2` [Example 30] belongs 7.76; to `COC(=O)N1CCC(c2c(C)cc(Nc3ncc(Cl)c(Nc4ccccc4S(=O)(=O)C(C)C)n3)c3c2C[C@H](C)O3)CC1` [Example 40, (S)-methyl 4-(7-((5-chloro-4-((2-(isopropylsulfonyl)phenyl)amino)pyrimidin-2-yl)amino)-2,5-dimethyl-2,3-dihydrobenzofuran-4-yl)piperidine-1-carboxylate], 6.92.
